According to PMC10343472, “Cyclopentenylcytosine (CPE-C): In Vitro and In Vivo Evaluation as an Antiviral against Adenoviral Ocular Infections” (Molecules, 2023):
Marks after values point to notes of the source that are not given here.

Legend:
[1] = signs of systemic toxicity in the rabbit studies after topical ocular administration; type: in vivo; conditions: topical ocular administration in the doses given
Excerpt: Like 2′,3′-dideoxycytidine (ddC; zalcitabine), the most important unresolved issue affecting the future commercial development of CPE-C is systemic safety. The untimely deaths reported in 1995 of two cancer patients treated with intravenous CPE-C [35] raises serious concerns for the treatment of a self-limited non-blinding ocular infection. […] Therefore, the challenge for a pharmaceutical company will be to generate convincing and reassuring systemic safety data following topical administration. Given the negative clinical history associated with this compound, a persuasive package of unambiguous data will be required to convince appropriate governmental regulatory agencies to grant approval for the proposed ocular indication for CPE-C as the first topical anti-adenoviral drug.

[2] = set-up: method as in PMID 7554044; conditions: treatment of solid tumors; intravenous; cited from earlier work
HAdV5 = assay: Ad5/NZW rabbit ocular replication model; type: in vivo, New Zealand white (NZW) rabbits; conditions: for number of HAdV5-positive cultures per group on days 1, 3, 4, 5, 7 and 14 compared with saline control: Fisher Exact Test, p < 0.05; for reduction of the duration of shedding: vs saline control; for Duration of HAdV5 Shedding, Mean ± Sd: n = 20; for Mean ± Sd Combined HAdV5 Ocular Titers, Early Phase (Days 1–5) / Mean ± Sd Combined HAdV5 Ocular Titers, Late Phase (Days 7–14): n = 80
Description: Using the Ad5/NZW rabbit ocular replication model, the current study was performed in duplicate trials using a total of 40 rabbits (20 per trial). Following the systemic and topical anesthesia described above, the rabbits were topically inoculated with 50 µL (1.5 × 10^6 PFU/eye) of HAdV5 in both eyes after corneal epithelial scarification (12 cross-hatched strokes of a #25 sterile needle). Twenty-four hours later, the rabbits were randomly assigned to one of four topical treatment groups (n = 10): (1) 3% CPE-C 4X/day, (2) 3% CPE-C 2X/day, (3) 0.5% Cidofovir 2X/day, and (4) Saline Control 4X/day. Rabbits were treated topically in both eyes according to the above treatment regimens for 7 days. The CPE-C ointments were administered as described above in the ocular toxicity study. Cidofovir and saline were administered as 37 µL aqueous drops. Following topical anesthesia with 0.5% proparacaine, ocular swabbing to recover HAdV5 from the tear film and corneal and conjunctival surfaces was performed on days 0, 1, 3, 4, 5, 7, 9, 11, and 14 after inoculation. The cultures were taken at least 1 h after the final dose of antiviral on the days the antivirals were administered. The swabs from each eye were placed individually into tubes containing 1 mL of tissue culture media and were frozen at −80 °C pending viral plaque assay.
The samples to be assayed were diluted 1:10 for up to 6 dilutions. One-tenth of a ml of both the undiluted sample and the dilutions was inoculated onto duplicate wells of 24-well multiplates containing A549 monolayers. The virus was adsorbed for 3 h at 37 °C in a 5% CO2-water vapor atmosphere. The plates were rocked intermittently to keep the cells from drying. Following adsorption, 1 mL of tissue culture media containing 0.5% methylcellulose was added to each well, and the plates were incubated at 37 °C in a 5% CO2-water vapor atmosphere. After the appropriate incubation period, the cells were fixed and stained with 0.5% gentian violet in formalin. The plates were dried, and the number of plaques per well was counted under a dissecting microscope. The viral titers were then calculated and expressed as plaque-forming units per milliliter (PFU/mL).
The in vitro EC50 data was analyzed with Two-Sample T-Tests using Minitab (Minitab Inc., State College, PA, USA) statistical software Version 21. Following the completion of both trials in the in vivo antiviral efficacy study, the data from each trial were analyzed statistically using Minitab and GraphPad online (https://www.graphpad.com/quickcalcs/contingency1/ (accessed on 16 February 2023)). […] Significance was established at the p ≤ 0.05 confidence level.

NZW rabbit eyes = assay: ocular toxicity in Draize rabbit model; type: in vivo, New Zealand white (NZW) rabbits; set-up: key to Maximum Mean Total Score: Draize/MMTS ocular toxicity score; on Draize irritation class: key: N = Non-Irritating; PN = Practically Non-Irritating
Description: CPE-C was evaluated for ocular toxicity using the standard Draize ocular scoring method which has been in use to determine the toxicity of cosmetics and chemicals since 1944 [39]. CPE-C ointments (3%, 2%, 1%, 0.5%) were administered topically 4 times daily for 4 days in uninfected, non-scarified NZW rabbit eyes (n = 2). Additionally, the 3% CPE-C concentration was also evaluated in rabbit eyes after corneal scarification. Overall, CPE-C, in concentrations up to 3% in an Aquaphor vehicle, appeared to be non-toxic to NZW rabbit eyes. […] There appeared to be no inhibition of corneal epithelial wound healing by the CPE-C in eyes that had undergone corneal epithelial scarification. Since the 3% CPE-C was the highest non-toxic concentration tested, this concentration was chosen for the in vivo antiviral efficacy testing in the Ad5/NZW rabbit ocular replication model.
CPE-C ointment (3%, 2%, 1%, 0.5%) was administered topically 4 times daily for 4 days in uninfected, non-scarified NZW rabbit eyes (n = 2). The CPE-C ointments were administered in approximately ½ inch strips per dose via a syringe with a 19-gauge cannula attached. The eyes were closed and gently rubbed to produce even distribution of antiviral over the entire ocular surface. The 3% CPE-C concentration was also evaluated in rabbit eyes after corneal scarification (general anesthesia with 40 mg/kg of ketamine and 4 mg/kg of xylazine administered intramuscularly and topical ocular anesthesia with proparacaine followed by 12 cross-hatched strokes with a #25 needle). All eyes were evaluated in a masked fashion for ocular toxicity using the Draize and MMTS scoring system on days 2, 3, and 4.

[3] = set-up: method as in PMID 11431446; conditions: topical ocular; cited from earlier work
[4] = 3% ointment topical 2X/Day for 7 days
[5] = 3% ointment topical 4X/Day for 7 days
[6] = 1% ointment 4 times daily, non-scarified eyes, Day 2
[7] = 1% ointment 4 times daily, non-scarified eyes, Day 3
[8] = 1% ointment 4 times daily, non-scarified eyes, Day 4
[9] = 2% ointment 4 times daily, non-scarified eyes, Day 2
[10] = 2% ointment 4 times daily, non-scarified eyes, Day 3
[11] = 2% ointment 4 times daily, non-scarified eyes, Day 4
[12] = 3% ointment 4 times daily, non-scarified eyes, Day 2
[13] = 0.5% drops topical 2X/Day for 7 days

Nc1ccn([C@@H]2C=C(CO)[C@@H](O)[C@H]2O)c(=O)n1 [CPE-C, Cyclopentenylcytosine]
signs of systemic toxicity (decreased appetite, weight loss, wasting, death) [1]: no obvious signs of systemic toxicity | patient deaths during clinical trials [2]: Two patient deaths from refractory hypotension | number of HAdV5-positive cultures per group on days 1, 3, 4, 5, 7 and 14 compared with saline control (HAdV5; 3% 2X/day): significantly reduced | number of HAdV5-positive cultures per group on days 1, 3, 4, 5, 7 and 14 compared with saline control (HAdV5; 3% 4X/day): significantly reduced | reduction of the duration of shedding (HAdV5; 3% administered 2X per day for 7 days): 5.6 days | reduction of the duration of shedding (HAdV5; 3% administered 4X per day for 7 days): 6.8 days | HAdV5-Positive Eye Cultures/Total, Early Phase (Days 1–5) (HAdV5; [4]): 29/80 | HAdV5-Positive Eye Cultures/Total, Early Phase (Days 1–5), percent (HAdV5; [4]): 36% | HAdV5-Positive Eye Cultures/Total, Late Phase (Days 7–14) (HAdV5; [4]): 2/80 | HAdV5-Positive Eye Cultures/Total, Late Phase (Days 7–14), percent (HAdV5; [4]): 3% | HAdV5-Positive Eye Cultures/Total, Overall (Days 1–14) (HAdV5; [4]): 31/160 | HAdV5-Positive Eye Cultures/Total, Overall (Days 1–14), percent (HAdV5; [4]): 19% | Duration of HAdV5 Shedding, Mean ± Sd (HAdV5; [4]): 2.5 ± 2.3 ^d Days | Mean ± Sd Combined HAdV5 Ocular Titers, Early Phase (Days 1–5) (HAdV5; [4]): 3.5 ± 18.1 × 10^1 b Log10 PFU/mL | Mean ± Sd Combined HAdV5 Ocular Titers, Late Phase (Days 7–14) (HAdV5; [4]): 3.6 ± 25.2 × 10^0 c Log10 PFU/mL | HAdV5-Positive Eye Cultures/Total, Late Phase (Days 7–14) (HAdV5; [5]): 6/80 | HAdV5-Positive Eye Cultures/Total, Late Phase (Days 7–14), percent (HAdV5; [5]): 8% | HAdV5-Positive Eye Cultures/Total, Overall (Days 1–14) (HAdV5; [5]): 24/160 | HAdV5-Positive Eye Cultures/Total, Overall (Days 1–14), percent (HAdV5; [5]): 15% | Duration of HAdV5 Shedding, Mean ± Sd (HAdV5; [5]): 1.3 ± 1.6 ^d Days | Mean ± Sd Combined HAdV5 Ocular Titers, Early Phase (Days 1–5) (HAdV5; [5]): 1.6 ± 4.8 × 10^1 b Log10 PFU/mL | Mean ± Sd Combined HAdV5 Ocular Titers, Late Phase (Days 7–14) (HAdV5; [5]): 0.9 ± 4.4 × 10^0 c Log10 PFU/mL | Maximum Mean Total Score (NZW rabbit eyes; 0.5% ointment 4 times daily, non-scarified eyes, Day 2): 1.0 | Maximum Mean Total Score (NZW rabbit eyes; 0.5% ointment 4 times daily, non-scarified eyes, Day 3): 1.0 | Maximum Mean Total Score (NZW rabbit eyes; 0.5% ointment 4 times daily, non-scarified eyes, Day 4): 1.0 | Draize irritation class (NZW rabbit eyes; [6]): N | Maximum Mean Total Score (NZW rabbit eyes; [6]): 0.0 | Draize irritation class (NZW rabbit eyes; [7]): N | Maximum Mean Total Score (NZW rabbit eyes; [7]): 0.0 | Draize irritation class (NZW rabbit eyes; [8]): N | Maximum Mean Total Score (NZW rabbit eyes; [8]): 0.0 | Draize irritation class (NZW rabbit eyes; [9]): N | Maximum Mean Total Score (NZW rabbit eyes; [9]): 0.0 | Draize irritation class (NZW rabbit eyes; [10]): N | Maximum Mean Total Score (NZW rabbit eyes; [10]): 0.0 | Draize irritation class (NZW rabbit eyes; [11]): N | Maximum Mean Total Score (NZW rabbit eyes; [11]): 0.0 | Maximum Mean Total Score (NZW rabbit eyes; 3% ointment 4 times daily, eyes with scarification, Day 2): 1.0 | Maximum Mean Total Score (NZW rabbit eyes; 3% ointment 4 times daily, eyes with scarification, Day 3): 1.0 | Maximum Mean Total Score (NZW rabbit eyes; 3% ointment 4 times daily, eyes with scarification, Day 4): 1.0 | Draize irritation class (NZW rabbit eyes; [12]): N | Maximum Mean Total Score (NZW rabbit eyes; [12]): 0.0 | Maximum Mean Total Score (NZW rabbit eyes; 3% ointment 4 times daily, non-scarified eyes, Day 3): 2.0 | Maximum Mean Total Score (NZW rabbit eyes; 3% ointment 4 times daily, non-scarified eyes, Day 4): 2.0 | ocular irritation by Draize scoring (NZW rabbit eyes; 3% ointment, scarified eyes, 4 times daily for 4 days): practically non-irritating | inhibition of corneal epithelial wound healing (NZW rabbit eyes; eyes that had undergone corneal epithelial scarification): no inhibition | ocular irritation by Draize scoring (NZW rabbit eyes; rabbit, in vivo): non-irritating or practically non-irritating

Nc1ccn(C[C@@H](CO)OCP(=O)(O)O)c(=O)n1 [Cidofovir, cidofovir, reference compound]
toxicity leading to discontinuation of development of topical cidofovir in the USA [3]: epiphora due to secondary lacrimal canalicular blockade | number of HAdV5-positive cultures per group on days 1, 3, 4, 5, 7 and 14 compared with saline control (HAdV5; 0.5% 2X/day): significantly reduced | HAdV5-positive cultures on day 9 compared with saline control (HAdV5; 0.5% 2X/day, p = 0.0197, FET): significantly fewer | HAdV5-Positive Eye Cultures/Total, Early Phase (Days 1–5) (HAdV5; [13]): 26/80 | HAdV5-Positive Eye Cultures/Total, Early Phase (Days 1–5), percent (HAdV5; [13]): 33% | HAdV5-Positive Eye Cultures/Total, Late Phase (Days 7–14) (HAdV5; [13]): 1/80 | HAdV5-Positive Eye Cultures/Total, Late Phase (Days 7–14), percent (HAdV5; [13]): 1% | HAdV5-Positive Eye Cultures/Total, Overall (Days 1–14) (HAdV5; [13]): 27/160 | HAdV5-Positive Eye Cultures/Total, Overall (Days 1–14), percent (HAdV5; [13]): 17% | Duration of HAdV5 Shedding, Mean ± Sd (HAdV5; [13]): 2.0 ± 1.8 ^d Days | Mean ± Sd Combined HAdV5 Ocular Titers, Early Phase (Days 1–5) (HAdV5; [13]): 6.7 ± 12.7 × 10^0 b Log10 PFU/mL | Mean ± Sd Combined HAdV5 Ocular Titers, Late Phase (Days 7–14) (HAdV5; [13]): 0.3 ± 2.2 × 10^0 c Log10 PFU/mL
